29 compounds from ChEMBL document CHEMBL5625242, “Discovery of brain permeable 2-Azabicyclo[2.2.2]octane sulfonamides as a novel class of presenilin-1 selective γ-secretase inhibitors” (Eur J Med Chem, 2023) can be followed below.

As usually defined, the IC50 is the midpoint of a concentration-inhibition curve. A higher IC50 goes with a need for much substance.

Holding throughout (type): cell-based
Assay [1] is described as follows: Inhibition of human PSEN2/APH1A expressed in MEF cells with Psen1/2 double knockout/Aph1ABC triple knockout by ELISA.
The species named for assay [2] is Homo sapiens. The experiment in a line: Selectivity ratio of IC50 for human PSEN2/APH1A expressed in MEF cells with Psen1/2 double knockout/Aph1ABC triple knockout to IC50 for human PSEN1/APH1B expressed in MEF cells with Psen1/2 double knockout/Aph1ABC triple knockout.
Assay [3] is filed under the species Homo sapiens. The experiment in a line: Selectivity ratio of IC50 for human PSEN2/APH1B expressed in MEF cells with Psen1/2 double knockout/Aph1ABC triple knockout to IC50 for human PSEN1/APH1B expressed in MEF cells with Psen1/2 double knockout/Aph1ABC triple knockout.
The nature of assay [4]: Inhibition of human PSEN1/APH1A expressed in MEF cells with Psen1/2 double knockout/Aph1ABC triple knockout by ELISA. A general note: In an ELISA, binding on a coated surface is turned into a signal by an enzyme label.
The nature of assay [5]: Inhibition of human PSEN2/APH1B expressed in MEF cells with Psen1/2 double knockout/Aph1ABC triple knockout by ELISA.
Assay [6] is described as follows: Inhibition of human PSEN1/APH1B expressed in MEF cells with Psen1/2 double knockout/Aph1ABC triple knockout by ELISA.
For assay [7], the species on record is Homo sapiens. The assay can be described thus: Selectivity ratio of IC50 for human PSEN1/APH1A expressed in MEF cells with Psen1/2 double knockout/Aph1ABC triple knockout to IC50 for human PSEN1/APH1B expressed in MEF cells with Psen1/2 double knockout/Aph1ABC triple knockout.

Take `O=C1NCCCC[C@H]1N(Cc1ccc(Br)cc1)S(=O)(=O)c1ccc(Cl)cc1`: the IC50 in assay [1] was found to be 4.11 µM; in assay [4] it was 0.0383 µM; in assay [5], 1.71 µM; in assay [6] it was 0.0245 µM. For the same compound, the Ratio IC50 in assay [2] and in assay [3] was over 60 in each case.
With `O=S(=O)(N[C@H]1CC[C@@](c2cc(F)ccc2F)(S(=O)(=O)c2ccc(Cl)cc2)CC1)C(F)(F)F`, the IC50 in assay [1] turned out to be 0.153 µM; in assay [4], 0.0014 µM; in assay [5], 0.139 µM; in assay [6], 0.00042 µM. Besides, the Ratio IC50 in assay [2] and in assay [3] was over 300 each time.
With `COc1ccc(S(=O)(=O)N2[C@H]3CC[C@H](C(=O)C3)[C@H]2c2ccc(C(F)(F)F)cc2)cc1` (racemic), the IC50 in assay [1] was over 10 µM; in assay [4], over 10 µM; in assay [5], over 10 µM; in assay [6], 1.45 µM. Besides, the Ratio IC50 in assay [7] was over 40.
`O=S(=O)(c1ccc(Cl)cc1)N1[C@H]2CC[C@H]([C@H](O)C2)[C@H]1c1ccc(C(F)(F)F)cc1`: the Ratio IC50 in assay [2] and in assay [3] was 15 in each case.
On to `O=C1C[C@@H]2CC[C@H]1[C@@H](c1ccc(C(F)(F)F)cc1)N2S(=O)(=O)c1ccc(Cl)cc1` (racemic), for which the IC50 in assay [1] was over 10 µM; in assay [4] it was 0.316 µM; in assay [5] it was over 5 µM; in assay [6], 0.034 µM. Besides, the Ratio IC50 in assay [2] was over 150; in assay [3], over 150; in assay [7], 9.
Regarding `N#Cc1ccc(S(=O)(=O)N2[C@H]3CC[C@H](C(=O)C3)[C@H]2c2ccc(C(F)(F)F)cc2)cc1` (racemic), the IC50 was over 10 µM in assay [1], over 10 µM in assay [4], over 10 µM in assay [5] and 1.55 µM in assay [6]. Also, the Ratio IC50 in assay [7] was over 40.
In the case of `O=S(=O)(c1ccc(Cl)cc1)N1[C@H]2CC[C@@H]([C@H]1c1cc(F)ccc1F)[C@@H](O)C2` (racemic), the IC50 in assay [1] came to 0.37 µM; in assay [4], 0.037 µM; in assay [5], 0.38 µM; in assay [6], 0.025 µM. In addition, the Ratio IC50 in assay [2] and in assay [3] was 12 throughout.
For `O=C1C[C@@H]2CC[C@H]1[C@@H](c1ccc(F)c(F)c1)N2S(=O)(=O)c1ccc(Cl)cc1` (racemic), the IC50 in assay [1] was over 10 µM; in assay [4], over 5.37 µM; in assay [5], over 10 µM; in assay [6] it was 1.12 µM. Besides, the Ratio IC50 in assay [7] is over 3.
With `O=C1C[C@@H]2CC[C@H]1[C@@H](c1ccc(C(F)(F)F)nc1)N2S(=O)(=O)c1ccc(Cl)cc1` (racemic), the IC50 in assay [1] is over 10 µM; in assay [4], 0.69 µM; in assay [5], over 10 µM; in assay [6], 0.39 µM. The Ratio IC50 in assay [2] and in assay [3] was over 11 throughout.
Turning to `CCOC(=O)Nc1ccc([C@@H]2[C@@H]3CC[C@@H](CC3=O)N2S(=O)(=O)c2ccc(Cl)cc2)cc1` (racemic), the IC50 stood at 6.17 µM in assay [1], 3.23 µM in assay [4], 6.46 µM in assay [5] and 0.288 µM in assay [6]. Besides, the Ratio IC50 in assay [2] was over 20; in assay [3], over 20; in assay [7], over 11.
`O=C1C[C@@H]2CC[C@H]1[C@@H](c1cc(F)ccc1F)N2S(=O)(=O)c1ccc(Cl)cc1` (racemic): the IC50 in assay [1] is over 10 µM; in assay [4] it was 1.02 µM; in assay [5] it was over 10 µM; in assay [6], 0.426 µM. Moreover, the Ratio IC50 in assay [2] and in assay [3] was 25 each time.
For `COc1ccc([C@@H]2[C@@H]3CC[C@@H](CC3=O)N2S(=O)(=O)c2ccc(Cl)cc2)cn1` (racemic), the IC50 was over 10 µM in assay [1], 0.794 µM in assay [4], over 10 µM in assay [5] and 0.195 µM in assay [6]. The Ratio IC50 in assay [2] and in assay [3] was over 5 each time.
As to `CC(=O)Nc1ccc([C@@H]2[C@@H]3CC[C@@H](C[C@@H]3O)N2S(=O)(=O)c2ccc(Cl)s2)cc1` (racemic), the IC50 in assay [1] was found to be 0.513 µM; in assay [4] it was 0.0724 µM; in assay [5] it was 0.851 µM; in assay [6], 0.026 µM.
On the same counts, the results for `O=S(=O)(c1ccc(Cl)cc1)N1[C@H]2CC[C@@H]([C@H]1c1ccc(F)c(F)c1)[C@@H](O)C2` (racemic) are over 10 µM, 0.295 µM, over 10 µM and 0.058 µM.
As for `O=C1C[C@@H]2CC[C@H]1[C@@H](c1ccc(OC(F)(F)F)cc1)N2S(=O)(=O)c1ccc(Cl)cc1` (racemic), the IC50 in assay [1] was over 10 µM; in assay [4] it was 1.62 µM; in assay [5], over 10 µM; in assay [6], 0.19 µM. In addition, the Ratio IC50 in assay [2] and in assay [3] was over 5 throughout.
For `O=C1C[C@@H]2CC[C@H]1[C@@H](c1ccc(C(F)(F)F)nc1)N2S(=O)(=O)c1ccc(Cl)s1` (racemic), the IC50 in assay [1] was over 10 µM; in assay [4], 1.91 µM; in assay [5], over 10 µM; in assay [6], 0.588 µM.
Turning to `COc1ccc([C@@H]2[C@@H]3CC[C@@H](C[C@@H]3O)N2S(=O)(=O)c2ccc(Cl)cc2)cn1` (racemic), the IC50 in assay [1] is over 10 µM; in assay [4], 0.38 µM; in assay [5], over 10 µM; in assay [6], 0.062 µM.
For `O=S(=O)(c1ccc(Cl)cc1)N1[C@H]2CC[C@@H]([C@H]1c1ccc(C(F)(F)F)nc1)[C@@H](O)C2` (racemic), the IC50 in assay [1] was over 2 µM; in assay [4], 0.263 µM; in assay [5] it was over 2 µM; in assay [6], 0.038 µM.
Consider `N#Cc1ccc([C@@H]2[C@@H]3CC[C@@H](CC3=O)N2S(=O)(=O)c2ccc(Cl)cc2)cc1` (racemic), for which the IC50 in assay [1] was over 8 µM; in assay [4], 0.891 µM; in assay [5], over 8 µM; in assay [6], 0.234 µM.
Turning to `O=S(=O)(c1ccc(Cl)cc1)N1[C@@H]2CCC[C@H]1c1cn[nH]c1C2`, the IC50 stood at 0.272 µM in assay [1], 0.0472 µM in assay [4] and 0.38 µM in assay [5]. In addition, the Ratio IC50 in assay [2] and in assay [3] was over 260 each time.
Turning to `O=S(=O)(c1ccc(Cl)cc1)N1[C@H]2CC[C@@H]([C@H]1c1ccc(OC(F)(F)F)cc1)[C@@H](O)C2` (racemic), the IC50 in assay [1] is over 10 µM; in assay [4] it was 0.151 µM; in assay [5], over 10 µM; in assay [6], 0.037 µM.
Turning to `N#Cc1ccc([C@@H]2[C@@H]3CC[C@@H](CC3=O)N2S(=O)(=O)c2ccc(Cl)cc2)c(F)c1` (racemic), the IC50 came to 3.39 µM in assay [1], 0.691 µM in assay [4], 7.58 µM in assay [5] and 0.131 µM in assay [6].
`O=C1C[C@@H]2CC[C@H]1[C@@H](c1ccc(C(F)(F)F)cc1)N2S(=O)(=O)c1ccccc1Cl` (racemic): the IC50 was over 10 µM in assay [1], over 10 µM in assay [4], over 10 µM in assay [5] and 5.89 µM in assay [6].
On to `N#Cc1ccc([C@@H]2[C@@H]3CC[C@@H](C[C@@H]3O)N2S(=O)(=O)c2ccc(Cl)cc2)c(F)c1` (racemic), for which the IC50 in assay [1] came out at 0.147 µM; in assay [4], 0.0069 µM; in assay [5] it was 0.257 µM; in assay [6], 0.0024 µM. Besides, the figures for the Ratio IC50 in assay [2], in assay [3] and in assay [7] were 40, 100 and 2, respectively.
On to `O=S(=O)(c1ccc(Cl)cc1)N1[C@H]2CC[C@@H]([C@H]1c1ccc(C(F)(F)F)cc1)[C@@H](O)C2` (racemic), for which the results for the Ratio IC50 in assay [2], in assay [3] and in assay [7] were over 390, over 330 and over 5, respectively.
`O=S(=O)(c1ccc(Cl)cc1)N1[C@H]2CC[C@@H]([C@H]1c1ccccc1Cl)[C@@H](O)C2` (racemic): the IC50 in assay [1] is 0.131 µM; in assay [4] it was 0.012 µM; in assay [5], 0.214 µM; in assay [6], 0.003 µM. Moreover, the values for the Ratio IC50 in assay [2], in assay [3] and in assay [7] were 40, 100 and 2, respectively.
With `O=C1C[C@@H]2CC[C@H]1[C@@H](c1cc(F)ccc1F)N2S(=O)(=O)c1ccc(Cl)s1` (racemic), the IC50 in assay [1] was over 10 µM; in assay [4] it was 7.08 µM; in assay [5], over 10 µM; in assay [6], 0.512 µM. Also, the Ratio IC50 in assay [7] amounted to 13.
For the compound `Cc1ccc(S(=O)(=O)N2[C@H]3CC[C@H](C(=O)C3)[C@H]2c2ccc(C(F)(F)F)cc2)cc1` (racemic), the IC50 in assay [1] is over 5 µM; in assay [4], 0.281 µM; in assay [5] it was over 5 µM; in assay [6], 0.055 µM. The Ratio IC50 in assay [2] and in assay [3] was over 100 in each case.
Consider `O=C1C[C@@H]2CC[C@H]1[C@@H](c1ccc(Cl)cc1)N2S(=O)(=O)c1ccc(Cl)cc1` (racemic), for which the IC50 in assay [1] was over 10 µM; in assay [4] it was 1.35 µM; in assay [5], over 10 µM; in assay [6], 0.182 µM. Moreover, the Ratio IC50 in assay [2] and in assay [3] was over 5 in each case.
